Earlier results as cited in patent US8530500B2, “Stable pharmaceutical omeprazole formulation for oral administration” (Vetegen, LLC, priority 2009, dated 2013).
≈ marks a conversion by molar mass, not a printed value.

Columns and labels:
[1] = not given; remark: listed apart in the source

solubility in dimethyl sulfoxide (DMSO) (DMSO): > 19 mg/mL
solubility in Polyethylene Glycol 400 (Polyethylene Glycol 400): 20 mg/mL (≈ 57.9 mM)
solubility in ethanol (ethanol): 4.5 mg/mL (≈ 13 mM)
solubility in water (water): 0.5 mg/mL (≈ 1.45 mM)
half-life at neutral pH ([1]; neutral pH): about 14 hours
stability at pH levels above 7 ([1]; pH above 7, protected from light and extremes in temperature and humidity): very stable
stability in water, ethanol or acidic environments ([1]; water, ethanol or acidic environments): not very stable
SMILES: COc1ccc2[nH]c([S+]([O-])Cc3ncc(C)c(OC)c3C)nc2c1 (stereo not shown) [omeprazole]
